Results from patent publication US8759535B2, “Substituted fused imidazole derivatives, pharmaceutical compositions, and methods of use thereof” (High Point Pharmaceuticals, LLC, priority 2010, dated 2014).
Where a name gives a salt, the structure may show the parent alone.

System: HMOX1
Experiment: HMOX1 Protein Assay (immunostaining of HO-1 in NHLF cells, GE InCell 1000)
Assay type: cell-based
Details: Homo sapiens, fold change above DMSO treated cells, 3 μM compound (asterisk), 16 h
Procedure, shortened: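 NHLF cells seeded overnight in FGM-2, then exposed to compound or DMSO vehicle for 16 h, fixed, and immunostained for HO-1 with Hoechst nuclear counterstain; imaged on InCell 1000. Values are fold change over DMSO-treated cells, generally at 5 μM (0.8% DMSO), with asterisked entries at 3 μM.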

SMILES	fold induction at 3 µM
CCN(CC)CCCNC(=O)c1ccc2c(c1)nc(Nc1nc3ccc(OC(F)(F)F)cc3s1)n2C [Example 351, 1-Methyl-2-(6-trifluoromethoxy-benzothiazol-2-ylamino)-1H-benzoimidazole-5-carboxylic acid (3-diethylamino-propyl)-amide]	25
Cn1c(Nc2nc3ccc(C(F)(F)F)cc3s2)nc2cc(C(=O)NCCC(=O)N3CCOCC3)ccc21 [Example 374, 1-Methyl-2-(6-trifluoromethyl-benzothiazol-2-ylamino)-1H-benzoimidazole-5-carboxylic acid (3-morpholin-4-yl-3-oxo-propyl)-amide]	34.2
CN(C)C(=O)CCNC(=O)c1ccc2c(c1)nc(Nc1nc3ccc(C(F)(F)F)cc3s1)n2C [Example 372, 1-Methyl-2-(6-trifluoromethyl-benzothiazol-2-ylamino)-1H-benzoimidazole-5-carboxylic acid (2-dimethylcarbamoyl-ethyl)-amide]	25.5
C[C@@H](NC(=O)c1ccc2c(c1)nc(Nc1nc3ccc(Cl)cc3s1)n2C)C(=O)N1CCOCC1 [Example 471, 2-(6-Chloro-benzothiazol-2-ylamino)-1-methyl-1H-benzoimidazole-5-carboxylic acid ((R)-1-methyl-2-morpholin-4-yl-2-oxo-ethyl)-amide]	17.4
COCCOCCNC(=O)c1ccc2c(c1)nc(Nc1nc3ccc(C(F)(F)F)cc3s1)n2C [Example 262, 1-Methyl-2-(6-trifluoromethyl-benzothiazol-2-ylamino)-1H-benzoimidazole-5-carboxylic acid [2-(2-methoxy-ethoxy)-ethyl]-amide]	40
Cn1c(Nc2nc3ccc(Cl)cc3s2)nc2cc(C(=O)NCCCN3CCOCC3)ccc21 [Example 359, 2-(6-Chloro-benzothiazol-2-ylamino)-1-methyl-1H-benzoimidazole-5-carboxylic acid (3-morpholin-4-yl-propyl)-amide]	17.4
Cn1c(Nc2nc3ccc(C(F)(F)F)cc3s2)nc2cc(C(=O)NCCCCO)ccc21 [Example 221, 1-Methyl-2-(6-trifluoromethyl-benzothiazol-2-ylamino)-1H-benzoimidazole-5-carboxylic acid (4-hydroxy-butyl)-amide]	26
CC(O)CCNC(=O)c1ccc2c(c1)nc(Nc1nc3ccc(C(F)(F)F)cc3s1)n2C (stereo not drawn) [Example 216, 1-Methyl-2-(6-trifluoromethyl-benzothiazol-2-ylamino)-1H-benzoimidazole-5-carboxylic acid (3-hydroxy-butyl)-amide]	31.6
Cn1c(Nc2nc3ccc(OC(F)(F)F)cc3s2)nc2cc(C(=O)NCCCN)ccc21 [Example 344, 1-Methyl-2-(6-trifluoromethoxy-benzothiazol-2-ylamino)-1H-benzoimidazole-5-carboxylic acid (3-amino-propyl)-amide hydrochloride]	25.7
CNCCn1c(Nc2nc3ccc(OC(F)(F)F)cc3s2)nc2cc(C(=O)NCCOCCO)ccc21 [Example 239, 1-(2-Methylamino-ethyl)-2-(6-trifluoromethoxy-benzothiazol-2 ylamino)-1H-benzoimidazole-5-carboxylic acid[2-(2-hydroxy-ethoxy)-ethyl]-amide hydrochloride]	10

Same assay, conditions: Homo sapiens, fold change above DMSO treated cells, 5 μM compound, 16 h

SMILES	fold induction at 5 µM
Cn1c(Nc2nc3ccc(OC(F)(F)F)cc3s2)nc2cc(C(=O)N3CCN(CCO)CC3)ccc21 [Example 305, [4-(2-Hydroxy-ethyl)-piperazin-1-yl]-[1-methyl-2-(6-trifluoromethoxy-benzothiazol-2-ylamino)-1H-benzoimidazol-5-yl]-methanone]	41.7
CN(C(=O)CNC(=O)c1ccc2c(c1)nc(Nc1nc3ccc(Cl)cc3s1)n2C)C1CCOCC1 [Example 393, 2-(6-Chloro-benzothiazol-2-ylamino)-1-methyl-1H-benzoimidazole-5-carboxylic acid {[methyl-(tetrahydro-pyran-4-yl)-carbamoyl]-methyl}-amide]	61.3
CNCCOCCNC(=O)c1ccc2c(c1)nc(Nc1nc3ccc(OC(F)(F)F)cc3s1)n2C [Example 271, 1-Methyl-2-(6-trifluoromethoxy-benzothiazol-2-ylamino)-1H-benzoimidazole-5-carboxylic acid [2-(2-methylamino-ethoxy)-ethyl]-amide hydrochloride]	69.9
Cn1c(Nc2nc3ccc(Cl)cc3s2)nc2cc(C(=O)N[C@H]3CCCNC3)ccc21 [Example 310, 2-(6-Chloro-benzothiazol-2-ylamino)-1-methyl-1H-benzoimidazole-5-carboxylic acid (S)-piperidin-3-ylamide hydrochloride]	24.6
Cn1c(Nc2nc3ccc(C(F)(F)F)cc3s2)nc2cc(C(=O)NCCO)ccc21 [Example 27, 1-Methyl-2-(6-trifluoromethyl-benzothiazol-2-ylamino)-1H-benzoimidazole-5-carboxylic acid (2-hydroxy-ethyl)-amide]	23.2
Cn1c(Nc2nc3cc(F)c(F)cc3s2)nc2cc(C(=O)NCCO)ccc21 [Example 36, 2-(5,6-Difluoro-benzothiazol-2-ylamino)-1-methyl-1H-benzoimidazole-5-carboxylic acid (2-hydroxy-ethyl)-amide]	13.8
CN(C(=O)CNC(=O)c1ccc2c(c1)nc(Nc1nc3ccc(Cl)cc3s1)n2C)C1CCNC1 (stereo not drawn) [Example 394, 2-(6-Chloro-benzothiazol-2-ylamino)-1-methyl-1H-benzoimidazole-5-carboxylic acid [(methyl-pyrrolidin-3-yl-carbamoyl)-methyl]-amide hydrochloride]	37.6
Cn1c(Nc2nc3ccc(OC(F)(F)F)cc3s2)nc2cc(C(=O)O)c(F)cc21 [Example 41, 6-Fluoro-1-methyl-2-(6-trifluoromethoxy-benzothiazol-2-ylamino)-1H-benzoimidazole-5-carboxylic acid]	33.3
CSCCNC(=O)c1ccc2c(c1)nc(Nc1nc3ccc(OC(F)(F)F)cc3s1)n2C [Example 101, 1-Methyl-2-(6-trifluoromethoxy-benzothiazol-2-ylamino)-1H-benzoimidazole-5-carboxylic acid (2-methylsulfanyl-ethyl)-amide]	11.2
Cn1c(Nc2nc3ccc(OC(F)(F)F)cc3s2)nc2cc(C(=O)N[C@H]3CC[C@H](O)CC3)ccc21 [Example 52, 1-Methyl-2-(6-trifluoromethoxy-benzothiazol-2-ylamino)-1H-benzoimidazole-5-carboxylic acid (trans-4-hydroxy-cyclohexyl)-amide]	10
CNCCn1c(Nc2nc3ccc(Cl)cc3s2)nc2cc(C(=O)NCCOCCO)ccc21 [Example 240, 2-(6-Chloro-benzothiazol-2-ylamino)-1-(2-methylamino-ethyl)-1H-benzoimidazole-5-carboxylic acid [2-(2-hydroxy-ethoxy)-ethyl]-amide hydrochloride]	35.4
Cn1c(Nc2nc3ccc(OC(F)(F)F)cc3s2)nc2cc(C(=O)NCC(=O)N3CCCCC3CO)ccc21 (stereo not drawn) [Example 439, 1-Methyl-2-(6-trifluoromethoxy-benzothiazol-2-ylamino)-1H-benzoimidazole-5-carboxylic acid [2-(2-hydroxymethyl-piperidin-1-yl)-2-oxo-ethyl]-amide]	84.2
Cn1c(Nc2nc3ccc(OC(F)(F)F)cc3s2)nc2cc(C(=O)NCCC3CCCCO3)ccc21 (stereo not drawn) [Example 263, 1-Methyl-2-(6-trifluoromethoxy-benzothiazol-2-ylamino)-1H-benzoimidazole-5-carboxylic acid [2-(tetrahydro-pyran-2-yl)-ethyl]-amide]	19.9
Cn1c(Nc2nc3ccc(OC(F)(F)F)cc3s2)nc2cc(C(=O)NC3CCN(CC(C)(C)O)C3)ccc21 (stereo not drawn) [Example 298, 1-Methyl-2-(6-trifluoromethoxy-benzothiazol-2-ylamino)-1H-benzoimidazole-5-carboxylic acid [1-(2-hydroxy-2-methyl-propyl)-pyrrolidin-3-yl]-amide]	21.1
CCn1c(Nc2nc3ccc(OC(F)(F)F)cc3s2)nc2cc(S(=O)(=O)C(F)(F)F)ccc21 [Example 199, (1-Ethyl-5-trifluoromethanesulfonyl-1H-benzoimidazol-2-yl)-(6-trifluoromethoxy-benzothiazol-2-yl)-amine]	1.5
Cn1c(Nc2nc3ccc(OC(F)(F)F)cc3s2)nc2cc(C(=O)NCC(=O)N3CCCC(O)C3)ccc21 (stereo not drawn) [Example 431, 1-Methyl-2-(6-trifluoromethoxy-benzothiazol-2-ylamino)-1H-benzoimidazole-5-carboxylic acid [2-(3-hydroxy-piperidin-1-yl)-2-oxo-ethyl]-amide]	49.4
Cn1c(Nc2nc3ccc(OC(F)(F)F)cc3s2)nc2cc(C(=O)NCC(=O)N3CCCC3)ccc21 [Example 141, 1-Methyl-2-(6-trifluoromethoxy-benzothiazol-2-ylamino)-1H-benzimidazole-5-carboxylic acid (2-oxo-2-pyrrolidin-1-yl-ethyl)-amide]	23.1
COCCNC(=O)c1ccc2c(c1)nc(Nc1nc3ccc(OC(F)(F)F)cc3s1)n2CCOC [Example 168, 1-(2-Methoxy-ethyl)-2-(6-trifluoromethoxy-benzothiazol-2-ylamino)-1H-benzoimidazole-5-carboxylic acid (2-methoxy-ethyl)-amide]	21.9
COc1cc2c(cc1C(=O)NCC(=O)N(C)C)nc(Nc1nc3ccc(OC(F)(F)F)cc3s1)n2C [Example 63, 6-Methoxy-1-methyl-2-(6-trifluoromethoxy-benzothiazol-2-ylamino)-1H-benzoimidazole-5-carboxylic acid dimethylcarbamoylmethyl-amide]	9.8
CCn1c(Nc2nc3ccc(OC(F)(F)F)cc3s2)nc2cc(C(=O)NCC(=O)N(C)C)ccc21 [Example 186, 1-Ethyl-2-(6-trifluoromethoxy-benzothiazol-2-ylamino)-1H-benzoimidazole-5-carboxylic acid dimethylcarbamoylmethyl-amide]	20.2
